Test results from US7960394B2, “Quinazoline derivative” (Banyu Pharmaceutical Co., Ltd., priority 2004, dated 2011).
Where two headings read alike, the source gives them in different places.

Tests used:
[1] = target: T1, human histamine-3 receptor (Homo sapiens, UniProt Q9Y5N1); assay: Histamine analogue-binding inhibition test ([3H]N-α-methylhistamine, membrane specimen); conditions: result in words
T1 construct: expressed in transfected cells; host or cells: HEK293 and CHO-K1 (American Type Culture Collection)
Protocol: A membrane specimen prepared from the cells having expressed a histamine-3 receptor was incubated in an assay buffer (50 mM Tris buffer, pH 7.4) along with a test compound and 20,000 cpm [^3H]N-α-methylhistamine (by NEN) therein, at 25° C. for 2 hours, and then filtered through a glass filter GF/C. After washed with 50 mM Tris buffer (pH 7.4), the radioactivity on the glass filter was determined. The non-specific binding was determined in the presence of 10 μM thioperamide (by Sigma), and the 50% inhibitory concentration (IC50) of the test compound to the specific N-α-methylhistamine binding was calculated [see Molecular Pharmacology, Vol. 55, p.

[2] = Brain/cerebrospinal fluid migration test; assay type: in vivo, SD male rats; conditions: rat; for concentration at 30 min / concentration at 2 h: male, SD
Protocol: A test compound was orally or intravenously administered to SD male rats (7 to 10 week-age, 200 to 400 g). While they were anesthetized with ether for a predetermined period of time, the whole blood was collected from them via their abdominal aorta, using a heparin-processed syringe. Then, their occipital skin was cut open, and a dental 30 G needle was stuck into the cervical vertebrae and further into the subarachnoid cavity. Via the tube connected to the dental 30 G needle, from 50 to 100 μL of the cerebrospinal fluid was collected in a 1 mL-syringe, and then the brain was taken out. The blood sample was centrifuged (4° C., 6000 rpm, 10 min), and the resulting plasma was stirred with ethanol of three times (including an internal standard substance) added thereto. The brain sample was homogenized with 2 mL of water added thereto, and a part of it was taken out and stirred with ethanol of three times (including an internal standard substance) added thereto. The cerebrospinal fluid was homogenized with 3 times its volume of ethanol (including an internal standard substance) added thereto. The above samples were left at −20° C. for 20 minutes, then centrifuged (4° C., 12,000 g, 10 min), and the supernatant was analyzed through LC/MS/MS. According to a relative calibration curve method, the concentration of the test compound in the plasma, in the brain and in the cerebrospinal fluid was determined.

T1 sequence (Q9Y5N1 whole entry): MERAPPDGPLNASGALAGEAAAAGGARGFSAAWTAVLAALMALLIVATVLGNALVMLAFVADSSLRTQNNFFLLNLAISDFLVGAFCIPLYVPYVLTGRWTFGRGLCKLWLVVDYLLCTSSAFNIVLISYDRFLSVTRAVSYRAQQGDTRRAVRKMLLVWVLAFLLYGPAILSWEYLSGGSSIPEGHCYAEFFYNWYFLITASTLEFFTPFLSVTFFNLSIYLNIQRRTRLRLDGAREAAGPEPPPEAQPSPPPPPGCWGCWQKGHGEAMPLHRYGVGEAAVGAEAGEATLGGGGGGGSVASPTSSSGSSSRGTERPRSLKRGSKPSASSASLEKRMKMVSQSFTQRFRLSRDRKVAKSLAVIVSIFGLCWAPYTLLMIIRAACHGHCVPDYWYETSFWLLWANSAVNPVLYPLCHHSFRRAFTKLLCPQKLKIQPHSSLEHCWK

Compound: Cn1c(-c2ccc(OCCCN3CCCC3)cc2)nc2ccccc2c1=O [Example 16, 3-Methyl-2-[4-(3-pyrrolidin-1-ylpropoxy)phenyl]-4(3H)-quinazoline]
- inhibition of the binding of N-alpha-methylhistamine (histamine analogue) to histamine-H3 receptor [1]: strongly inhibited
- concentration at 30 min ([2]; cerebrospinal fluid, intravenous administration 3 mg/kg, in 30 minutes, read-out: concentration in the cerebrospinal fluid): 134 nM
- concentration at 30 min ([2]; plasma, intravenous administration 3 mg/kg, in 30 minutes, read-out: concentration in the plasma): 1360 nM
- concentration in the brain ([2]; intravenous administration 3 mg/kg, in 30 minutes): 2.22 nmol/g

Compound: COc1ccnc2c(=O)n(C)c(-c3ccc(OC4CCN(C5CCC5)CC4)cc3)nc12 [Example 59, 2-{4-[(1-cyclobutylpiperidin-4-yl)oxy]phenyl}-8-methoxy-3-methylpyrido[3,2-d]pyrimidin-4(3H)-one]
- melting point: 182.2 to 205.2 °C

Compound: Cn1c(-c2ccc(OC3CCN(C4CC4)CC3)cc2)nc2ccccc2c1=O [Example 89, 3-Methyl-2-[4-(1-cyclopropyl-4-piperidinyloxy)-phenyl]-4(3H)-quinazolinone]
- concentration at 2 h ([2]; cerebrospinal fluid, oral administration 10 mg/kg, in 2 hours, read-out: concentration in the cerebrospinal fluid): 27 nM
- concentration at 2 h ([2]; plasma, oral administration 10 mg/kg, in 2 hours, read-out: concentration in the plasma): 700 nM
- concentration in the brain ([2]; oral administration 10 mg/kg, in 2 hours): 1.45 nmol/g
